Structures can show the parent of a compound that is named as a salt.
Experiments:
[1] = tested on: rat peritoneal mast cells; assay: Inhibition of histamine release from rat peritoneal mast cells, Procedure B; format: cell-based; settings: Mast cell, 1 h, sheep anti-rat IgE or ovalbumin, 37° C., 60 minutes, (d) No response detected at highest dose indicated, read-out: In Vitro Inhibition of Histamine Release IC50, Procedure B
Method: B. Procedure for Determining Inhibition of Histamine Release from Rat Peritoneal Mast Cells 1. Harvest of Peritoneal Mast Cells: After the rats are sacrificed with ether, 20 ml of Minimum Essential Medium (MEM) containing 20 units/ml heparin is injected into the peritoneum. The abdomen is massaged for one minute and the lavage fluid collected. The peritoneal cells are centrifuged at 1800 rpm for 8 minutes in cold. After two washes with Tris A buffer, the cells are resuspended in Tris ACM buffer at 2-4×10^6 cells/ml. 2. Reaction Mixture: The reaction is carried out in 12×75 mm plastic tubes at a total volume of 1.25 ml. The reaction mixture includes 0.5 ml (10-1000 μg) sheep anti-rat IgE or ovalbumin, 0.2 ml of the test compound in water at concentrations ranging from 10-1000 μM, […] phosphatidylserine solution (20-60 μg to each tube), and 0.5 ml of cell suspension. The reaction mixture is incubated in a 37° C. shaking water bath for 60 minutes. Upon completion of the reaction, the tubes are centrifuged and the supernatants collected. The protein is removed from the supernatants by precipitation with 0.2 ml of 8% perchloric acid. 3. Histamine Assay: Histamine release is measured by the automated fluorometric method of Siraganian, supra. The concentration which causes a 50% inhibition (IC50) of histamine release is computed as in Part A.

guinea pig basophils = assay: Inhibition of histamine release from guinea pig basophils, Procedure C; format: cell-based; settings: Cavia porcellus, 1 h, ovalbumin-sensitized, 37° C., 60 minutes, read-out: In Vitro Inhibition of Histamine Release IC50, Procedure C
Method: C. Procedure for Determining Inhibition of Histamine Release from Guinea Pig Basophils 1. In Vivo Sensitization: Male Hartley guinea pigs (200-300 gms) are immunized on day 0 with two 0.05 ml intradermal injections of 200 μg ovalbumin. Sensitized basophils are available between days 13-25 post-sensitization. This mode of sensitization favors IgE response. 2. Separation of Leukocytes: The method of Lett-Brown et al., Int. Arch. Allergy, Appl. Immun. 64, 241 (1981) is used. Animals are anesthetized with ether and are bled via cardiac puncture with plastic syringes containing sufficient EDTA to provide a final concentration of 10 mM. One part of 3% gelatin in saline at 37° C. is mixed with two parts of blood in a 16×150 mm tube. The cells are allowed to sediment at a 30° angle for 45 minutes in a 37° C. water bath. The leukocyte-rich plasma is collected and centrifuged at 150×g for 30 minutes at room temperature. The pelleted cells are washed in Hepes-buffered saline (HG) containing 4 mM EDTA and resuspended in Hepes-buffered saline containing Mg^++ and Ca^++ (HGCM) at 4-5×10^6 cells/ml. 3. Reaction Mixture: The reaction is carried out in 12×75 mm plastic tubes and a total volume of 1.2 ml which includes 0.5 ml of antigen, 0.2 ml of drug solution at concentrations ranging from 10-1000 μM and 0.5 ml of prewashed cell suspension. The reaction mixture is incubated in a 37° C. shaking water bath for 60 minutes. Upon completion of the reaction, the tubes are centrifuged and the supernatants collected. The protein is removed from the supernatants by precipitation with 0.2 ml of 8% perchloric acid. 4. Histamine Assay: Histamine release is measured by the automated fluorometric method of Siraganian, supra. The concentration which causes a 50 percent inhibition of Histamine release is computed as in Part A.

[2] = tested on: human leukocytes (basophils); assay: Inhibition of histamine release from human leukocytes (basophils), Procedure A; format: cell-based; settings: Leukocyte, 1 h, rabbit anti-human IgE, 37° C., 60 minutes, (d) No response detected at highest dose indicated, read-out: In Vitro Inhibition of Histamine Release IC50, Procedure A
Method: A. Procedure for Determining Inhibition of Histamine Release from Human Leukocytes (Basophils) 1. Separation of Leukocytes: A modification of the method of L. Lichtenstein and A. Osler, J. Exp. Med. 120, 507 (1964) is used. Heparinized human blood (80-100 ml) is mixed with 20 ml of saline (0.2%) containing 0.6 gm of dextrose and 1.2 gm dextran in propylene centrifuge tubes. The mixture is kept at ambient temperature for 60-90 minutes to allow the separation of erythrocytes from the platelet-leukocyte-rich supernate. The supernate is removed and centrifuged for 8 minutes at 110×g in cold. The leukocyte pellet is washed twice with Tris buffer and finally suspended in 150-180 ml Tris-ACM buffer at 1-2×10^6 cells/ml. 2. Reaction Mixture: The reaction is carried out in 12×75 mm plastic tubes at a total volume of […]. The reaction medium includes 0.05 ml rabbit anti-human IgE (the antigen), 0.2 ml of the test compound in water at concentrations ranging from 10-100 μM, and 0.1 ml of the leukocyte suspension. The reaction mixture is incubated in a 37° C. shaking water bath for 60 minutes. Upon completion of the reaction, the tubes are centrifuged and the supernatants collected. The protein is removed from the supernatants by precipitation with 0.2 ml of 8% perchloric acid. 3. Histamine Assay: Histamine release is measured by the automated fluorometric method of W. Siraganian and W. Hook in Chapter 102 of the Manual of Clinical Immunology, 2nd Edition, edited by R. Rose and H. Friedman, published by the American Society for Microbiology, Washington, D.C. 1980. Percent inhibition is calculated as follows: [formula] The concentration which causes a 50 percent inhibition (IC50) of histamine release is interpolated from a plot of percent inhibition versus logarithm of drug concentration.

Solubility limit = settings: pH 7

| IC50 [1] [µM] | IC50 [2] [µM] | SMILES | IC50 (guinea pig basophils) [µM] | solubility (Solubility limit) [µg/mL] |
| --- | --- | --- | --- | --- |
| > 100 | 3 | Clc1ccc(CCN2CCN(CCCN3CCN(CCc4ccc(Cl)cc4)CC3)CC2)cc1 [Example 16, 1,3-Bis[4-(4-chlorophenethyl)-1-piperazinyl]propane] | 12 | – |
| 9 | 6 | Clc1ccc(CN2CCCN(CCCN3CCCN(Cc4ccc(Cl)cc4)CC3)CC2)cc1 [Example 28, 1,3-Bis[4-(4-chlorobenzyl)-1-homopiperazinyl]propane tetrahydrochloride] | 2.3 | – |

| SMILES | IC50 [1] [µM] | IC50 [2] [µM] | IC50 (guinea pig basophils) [µM] | solubility (Solubility limit) [µg/mL] |
| --- | --- | --- | --- | --- |
| Cl.Cl.Cl.Cl.Clc1ccc(CCCN2CCN(CCCN3CCN(CCCc4ccc(Cl)cc4)CC3)CC2)cc1.O [Example 24, 1,3 -Bis[4-(3-{4-chlorophenyl}propyl)-1-piperazinyl]propane tetrahydrochloride monohydrate] | 2 | 2 | 8.9 | 1000 |
